US7491794B2, “Macrocyclic compounds as inhibitors of viral replication” (Intermune, Inc., priority 2003, dated 2009)
pIC50: −log10 of the molar value.

Target: T1, NS3-NS4 protease (Hepatitis C virus genotype 1a, UniProt P27958)
T1 construct: Recombinant E. coli or Baculovirus full-length NS3 was diluted to 3.33 μM with assay buffer; made in house; host or cells: E. coli or baculovirus (BV) system
Assay: NS3-NS4 protease assay / NS3 inhibition assay, Section D
Format: biochemical
Description: NS3-NS4 Protease Assay NS3 complex formation with NS4A-2.
Recombinant E. coli or Baculovirus full-length NS3 was diluted to 3.33 μM with assay buffer and transferred material to an eppendorf tube and place in water bath in 4° C. refrigerator. The appropriate amount of NS4A-2 to 8.3 mM in assay buffer was added to equal the volume of NS3 in step 2.1.1 (conversion factor −3.8 mg/272 μL assay buffer). The material was transferred to an eppendorf tube and place in water bath in 4° C. refrigerator.
After equilibration to 4° C., equal volumes of NS3 and NS4A-2 solutions were combined in an eppendorf tube, mix gently with a manual pipettor, and incubate mixture for 15 minutes in the 4° C. water bath. Final concentrations in the mixture are 1.67 μM NS3, 4.15 mM NS4A-2 (2485-fold molar excess NS4A-2).
After 15 minutes at 4° C., the NS3/NS4A-2 eppendorf tube was removed and placed in a room temperature water bath for 10 minutes. NS3/NS4A-2 was alliquoted at appropriate volumes and store at −80° C. (E. coli NS3 run at 2 nM in assay, aliquot at 25 μL. BV NS3 run at 3 nM in assay, aliquot at 30 μL).
Sample compounds were dissolved to 10 mM in DMSO then diluted to 2.5 mM (1:4) in DMSO.
The E. coli. NS3/NS4A-2 was diluted to 4 nM NS3 (1:417.5 of 1.67 μM stock−18 μL 1.67 μM stock+7497 μL assay buffer).
The BV NS3/NS4A-2 was diluted to 6 nM NS3 (1:278.3 of 1.67 μM stock−24 μL 1.67 μM stock+6655 μL assay buffer).
Using the manual multichannel pipettor, careful not to introduce bubbles into the plate, add 50 μL assay buffer to wells A01-H01 of a black Costar 96-well polypropylene storage plate.
Using the manual multichannel pipettor, careful not to introduce bubbles into the plate, add 50 μL of diluted NS3/NS4A-2 from step 2.2.6 to wells A02-H12 of plate in step 2.2.7.
Using the manual multichannel pipettor, careful not to introduce bubbles into the plate, transfer 25 μL of the wells in drug dilution plate in step 2.2.5 to corresponding wells in assay plate in step 2.2.8. Change tips on multichannel pipettor for each row of compounds transferred.
Using the manual multichannel pipettor, careful not to introduce bubbles into the plate, mix the wells from the assay plate in step 2.2.9 by aspirating and dispensing 35 μL of the 75 μL in each well five times. Change tips on multichannel pipettor for each row of wells mixed.
Cover plate with a polystyrene plate lid and pre-incubate the plate from step 2.2.10 containing NS3 protease and sample compounds 10 minutes at room temperature.
While plate from step 2.2.11 is pre-incubating, dilute RETS1 substrate in a 15 mL polypropylene centrifuge tube.
Dilute RETS1 substrate to 8 μM (1:80.75 of 646 μM stock−65 μL 646 μM stock+5184 μL assay buffer).
After the plate in step is done pre-incubating, and using the manual multichannel, add 25 μL of substrate to all wells on the plate. Quickly mix the plate as in step 2.2.10, mixing 65 μL of the 100 μL in the wells.
Read the plate in kinetic mode on the Molecular Devices SpectraMax Gemini XS plate reader. Reader settings: Read time: 30 minutes, Interval: 36 seconds, Reads: 51, Excitation k: 335 nm, Emission k: 495 nm, cutoff: 475 nm, Automix: off, Calibrate: once, PMT: high, Reads/well: 6, Vmax pts: 21 or 28/51 depending on length of linearity of reaction.
IC50s are determined using a four parameter curve fit equation, and converted to Ki's using the following Km's:
where Ki=IC50/(1+[S]/Km))

T1 sequence (P27958 1027-1657): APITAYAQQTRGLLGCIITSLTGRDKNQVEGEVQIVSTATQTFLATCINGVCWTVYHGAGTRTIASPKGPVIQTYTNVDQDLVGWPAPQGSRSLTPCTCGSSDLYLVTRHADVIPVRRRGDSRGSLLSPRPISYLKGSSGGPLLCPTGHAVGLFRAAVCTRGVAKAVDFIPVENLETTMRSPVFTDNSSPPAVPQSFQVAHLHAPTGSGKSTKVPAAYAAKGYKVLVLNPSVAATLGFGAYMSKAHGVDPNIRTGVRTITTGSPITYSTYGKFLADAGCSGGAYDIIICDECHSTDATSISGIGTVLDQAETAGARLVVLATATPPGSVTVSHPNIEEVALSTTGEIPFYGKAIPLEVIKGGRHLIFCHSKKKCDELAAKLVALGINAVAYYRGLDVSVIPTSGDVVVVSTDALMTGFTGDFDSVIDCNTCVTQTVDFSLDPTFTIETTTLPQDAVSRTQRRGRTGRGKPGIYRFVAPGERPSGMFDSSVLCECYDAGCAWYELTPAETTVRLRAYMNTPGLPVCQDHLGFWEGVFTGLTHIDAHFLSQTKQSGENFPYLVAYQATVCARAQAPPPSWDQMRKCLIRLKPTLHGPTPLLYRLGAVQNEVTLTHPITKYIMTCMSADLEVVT

pIC50 | Compound
> 7.00 | CC(C)(C)OC(=O)N[C@H]1CCCCC/C=C\[C@@H]2C[C@@]2(C(=O)NS(=O)(=O)C2CC2)NC(=O)[C@@H]2C[C@@H](NC(=O)c3csc(-c4ccccc4Cl)n3)CN2C1=O [Example 25]
> 7.00 | CC(C)Nc1nc(C(=O)N[C@@H]2C[C@H]3C(=O)N[C@]4(C(=O)NS(=O)(=O)C5CC5)C[C@H]4/C=C\CCCCC[C@H](NC(=O)OC(C)(C)C)C(=O)N3C2)cs1 [Example 12]
> 6.00 | CC(C)(C)OC(=O)N[C@H]1CCCCC/C=C\[C@@H]2C[C@@]2(C(=O)O)NC(=O)[C@@H]2C[C@@H](NC(=O)c3ccc4ccccc4c3)CN2C1=O [Example 62]
> 7.00 | COc1ccc2[nH]c(C(=O)N[C@@H]3C[C@H]4C(=O)N[C@]5(C(=O)NS(=O)(=O)C6CC6)C[C@H]5/C=C\CCCCC[C@H](NC(=O)OC(C)(C)C)C(=O)N4C3)cc2c1 [Example 33]
> 7.00 | CC(C)(C)NC(=O)N[C@H]1CCCCC/C=C\[C@@H]2C[C@@]2(C(=O)NS(=O)(=O)C2CC2)NC(=O)[C@@H]2C[C@@H](NC(=O)c3sc4cc(F)ccc4c3Cl)CN2C1=O [Example 55]
> 7.00 | CC(C)(C)OC(=O)N[C@H]1CCCCC/C=C\[C@@H]2C[C@@]2(C(=O)NS(=O)(=O)C2CC2)NC(=O)[C@@H]2C[C@@H](NC(=O)c3ccc4cc[nH]c4c3)CN2C1=O [Example 38]
> 7.00 | COc1cccc2cc(C(=O)N[C@@H]3C[C@H]4C(=O)N[C@]5(C(=O)NS(=O)(=O)C6CC6)C[C@H]5/C=C\CCCCC[C@H](NC(=O)OC(C)(C)C)C(=O)N4C3)oc12 [Example 42]
> 7.00 | CC(C)(C)OC(=O)N[C@H]1CCCCC/C=C\[C@@H]2C[C@@]2(C(=O)NS(=O)(=O)C2CC2)NC(=O)[C@@H]2C[C@@H](NC(=O)c3ccc(-c4ccccc4)cc3)CN2C1=O [Example 19]
> 7.00 | COc1ccc(C(=O)N[C@@H]2C[C@H]3C(=O)N[C@]4(C(=O)NS(=O)(=O)C5CC5)C[C@H]4/C=C\CCCCC[C@H](NC(=O)NC4CCCC4)C(=O)N3C2)cc1C(F)(F)F [Example 58]
> 7.00 | CC(C)(C)OC(=O)N[C@H]1CCCCC/C=C\[C@@H]2C[C@@]2(C(=O)NS(=O)(=O)C2CC2)NC(=O)[C@@H]2C[C@@H](NC(=O)c3sc4ccccc4c3Cl)CN2C1=O [Example 1]
> 7.00 | CC(C)(C)CC(=O)N[C@H]1CCCCC/C=C\[C@@H]2C[C@@]2(C(=O)NS(=O)(=O)C2CC2)NC(=O)[C@@H]2C[C@@H](NC(=O)c3sc4ccccc4c3Cl)CN2C1=O [Example 51]
> 7.00 | CC(C)(C)OC(=O)N[C@H]1CCCCC/C=C\[C@@H]2C[C@@]2(C(=O)NS(=O)(=O)C2CC2)NC(=O)[C@@H]2C[C@@H](NC(=O)c3ccc(C(N)=O)cc3)CN2C1=O [Example 18]
> 7.00 | COc1cccc(C(=O)N[C@@H]2C[C@H]3C(=O)N[C@]4(C(=O)NS(=O)(=O)C5CC5)C[C@H]4/C=C\CCCCC[C@H](NC(=O)OC(C)(C)C)C(=O)N3C2)c1 [Example 7]
> 7.00 | CC(C)(C)OC(=O)N[C@H]1CCCCC/C=C\[C@@H]2C[C@@]2(C(=O)NS(=O)(=O)C2CC2)NC(=O)[C@@H]2C[C@@H](NC(=O)c3cc4cc(F)ccc4[nH]3)CN2C1=O [Example 34]
> 7.00 | CC(C)(C)OC(=O)N[C@H]1CCCCC/C=C\[C@@H]2C[C@@]2(C(=O)NS(=O)(=O)C2CC2)NC(=O)[C@@H]2C[C@@H](NC(=O)c3cnn(-c4ccccc4)c3C(F)(F)F)CN2C1=O [Example 21]
> 7.00 | CC(C)(C)NC(=O)N[C@H]1CCCCC/C=C\[C@@H]2C[C@@]2(C(=O)NS(=O)(=O)C2CC2)NC(=O)[C@@H]2C[C@@H](NC(=O)c3sc4ccccc4c3Cl)CN2C1=O [Example 49]
> 7.00 | CCc1ccc(C(=O)N[C@@H]2C[C@H]3C(=O)N[C@]4(C(=O)NS(=O)(=O)C5CC5)C[C@H]4/C=C\CCCCC[C@H](NC(=O)OC(C)(C)C)C(=O)N3C2)cc1 [Example 3]
> 7.00 | COc1cc2cc(C(=O)N[C@@H]3C[C@H]4C(=O)N[C@]5(C(=O)NS(=O)(=O)C6CC6)C[C@H]5/C=C\CCCCC[C@H](NC(=O)OC(C)(C)C)C(=O)N4C3)[nH]c2cc1OC [Example 37]

pIC50 | Compound
> 7.00 | COc1ccc(C(=O)N[C@@H]2C[C@H]3C(=O)N[C@]4(C(=O)NS(=O)(=O)C5CC5)C[C@H]4/C=C\CCCCC[C@H](NC(=O)OC4CCCC4)C(=O)N3C2)cc1C(F)(F)F [Example 57]
> 7.00 | COc1ccc(C(=O)N[C@@H]2C[C@H]3C(=O)N[C@]4(C(=O)NS(=O)(=O)C5CC5)C[C@H]4/C=C\CCCCC[C@H](NC(=O)OC4CCCC4)C(=O)N3C2)cc1 [Example 56]
> 7.00 | COc1ccc(C(=O)N[C@@H]2C[C@H]3C(=O)N[C@]4(C(=O)NS(=O)(=O)C5CC5)C[C@H]4/C=C\CCCCC[C@H](NC(=O)OC(C)(C)C)C(=O)N3C2)cc1 [Example 6]
> 7.00 | CC(C)(C)OC(=O)N[C@H]1CCCCC/C=C\[C@@H]2C[C@@]2(C(=O)NS(=O)(=O)C2CC2)NC(=O)[C@@H]2C[C@@H](NC(=O)c3ccc(F)c(F)c3)CN2C1=O [Example 15]
> 7.00 | COc1ccc2oc(C(=O)N[C@@H]3C[C@H]4C(=O)N[C@]5(C(=O)NS(=O)(=O)C6CC6)C[C@H]5/C=C\CCCCC[C@H](NC(=O)OC(C)(C)C)C(=O)N4C3)cc2c1 [Example 41]
> 7.00 | CC(C)(C)OC(=O)N[C@H]1CCCCC/C=C\[C@@H]2C[C@@]2(C(=O)NS(=O)(=O)C2CC2)NC(=O)[C@@H]2C[C@@H](NC(=O)c3cc4cc(Cl)ccc4o3)CN2C1=O [Example 40]
> 5.00 | CC(C)(C)OC(=O)N[C@H]1CCCCC/C=C\[C@@H]2C[C@@]2(C(=O)O)NC(=O)[C@@H]2C[C@@H](NC(=O)c3cc4ccccc4s3)CN2C1=O [Example 59]
> 6.00 | CC(C)(C)OC(=O)N[C@H]1CCCCC/C=C\[C@@H]2C[C@@]2(C(=O)O)NC(=O)[C@@H]2C[C@@H](NC(=O)c3cc4ccccc4[nH]3)CN2C1=O [Example 63]
> 6.00 | CC(C)(C)OC(=O)N[C@H]1CCCCC/C=C\[C@@H]2C[C@@]2(C(=O)O)NC(=O)[C@@H]2C[C@@H](NC(=O)c3cc4ccccc4o3)CN2C1=O [Example 66]
> 7.00 | CC(C)(C)OC(=O)N[C@H]1CCCCC/C=C\[C@@H]2C[C@@]2(C(=O)NS(=O)(=O)C2CC2)NC(=O)[C@@H]2C[C@@H](NC(=O)c3sc4cccc(Cl)c4c3Cl)CN2C1=O [Example 45]
> 7.00 | CC(C)(C)OC(=O)N[C@H]1CCCCC/C=C\[C@@H]2C[C@@]2(C(=O)NS(=O)(=O)C2CC2)NC(=O)[C@@H]2C[C@@H](NC(=O)c3csc(-c4ccc(Cl)cc4)c3)CN2C1=O [Example 23]
> 7.00 | CC(C)(C)OC(=O)N[C@H]1CCCCC/C=C\[C@@H]2C[C@@]2(C(=O)NS(=O)(=O)C2CC2)NC(=O)[C@@H]2C[C@@H](NC(=O)c3cc4cc(OC(F)(F)F)ccc4[nH]3)CN2C1=O [Example 36]
> 7.00 | CC(C)(C)OC(=O)N[C@H]1CCCCC/C=C\[C@@H]2C[C@@]2(C(=O)NS(=O)(=O)C2CC2)NC(=O)[C@@H]2C[C@@H](NC(=O)c3ccc(-n4ccnc4)cc3)CN2C1=O [Example 20]
> 7.00 | COc1ccc(C(=O)N[C@@H]2C[C@H]3C(=O)N[C@]4(C(=O)NS(=O)(=O)C5CC5)C[C@H]4/C=C\CCCCC[C@H](NC(=O)OC(C)(C)C)C(=O)N3C2)cc1C(F)(F)F [Example 8]
> 7.00 | CC(C)(C)OC(=O)N[C@H]1CCCCC/C=C\[C@@H]2C[C@@]2(C(=O)NS(=O)(=O)C2CC2)NC(=O)[C@@H]2C[C@@H](NC(=O)c3ccc4ncccc4c3)CN2C1=O [Example 28]
> 7.00 | CC(C)(C)OC(=O)N[C@H]1CCCCC/C=C\[C@@H]2C[C@@]2(C(=O)NS(=O)(=O)C2CC2)NC(=O)[C@@H]2C[C@@H](NC(=O)c3sc4cc(F)ccc4c3Cl)CN2C1=O [Example 44]
> 5.00 | CC(C)(C)OC(=O)N[C@H]1CCCCC/C=C\[C@@H]2C[C@@]2(C(=O)O)NC(=O)[C@@H]2C[C@@H](NC(=O)c3ccccc3)CN2C1=O [Example 60]
